Test systems include UACC-257 melanoma; DU-145 prostate; LOX IMVI melanoma; SF-295 CNS; IGROV1 ovarian; CCRF-CEM leukemia; OVCAR-5 ovarian; ACHN renal; HOP-92 NSCLC; SK-MEL-2 melanoma.
What all share (assay): NCI tumour cell line growth inhibition, 48 h

Here are results for 10 compounds from PubChem BioAssay (NCI).

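Step 1: Grow cells in 96-well plates. Step 2: Expose to compound for 48 hours at 5 concentrations. Step 3: Interpolate endpoints linearly; if unreached, use highest concentration. TGI: concentration producing complete growth inhibition.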 Where a SMILES comes first, the peptide text is derived from it. [ ]: non-standard residue; d: D form. The star is where a group is joined. Tyr(3-Br) = N[C@@H](Cc1ccc(O)c(Br)c1)C(=O)O; Boc = CC(C)(C)OC(=O)*

As to `CN(C)Cc1cc(C(C)(C)C)ccc1-c1ccc(C(C)(C)C)cc1CN(C)C`, the TGI in the experiment with UACC-257 melanoma, with DU-145 prostate, in the experiment with LOX IMVI melanoma, in the experiment on SF-295 CNS, in the experiment with IGROV1 ovarian and in the experiment with CCRF-CEM leukemia was greater than 100 µM in each case. The TGI in the experiment with OVCAR-5 ovarian, in the experiment on ACHN renal, with HOP-92 NSCLC and in the experiment with SK-MEL-2 melanoma was greater than 100 µM each time.
Regarding `COC(=O)[C@H](Cc1ccc(O)c(Br)c1)NC(=O)[C@H](Cc1ccc(O)cc1)NC(=O)OC(C)(C)C` (Boc-Tyr-[Tyr(3-Br)]-OMe), the TGI in the experiment on UACC-257 melanoma was greater than 100 µM; with DU-145 prostate, greater than 100 µM; in the experiment on LOX IMVI melanoma it was 42.6 µM; in the experiment on SF-295 CNS, greater than 100 µM; in the experiment on IGROV1 ovarian, greater than 100 µM; in the experiment on CCRF-CEM leukemia, 51.2 µM. Also, the TGI in the experiment on OVCAR-5 ovarian was greater than 100 µM; in the experiment on ACHN renal, greater than 100 µM; in the experiment with HOP-92 NSCLC, 93 µM; with SK-MEL-2 melanoma it was greater than 100 µM.
Turning to `CCCCc1ccc(Nc2nc(=S)c3[nH]cnc3[nH]2)cc1`, the TGI with UACC-257 melanoma is 55.2 µM; in the experiment with DU-145 prostate, greater than 100 µM; in the experiment on LOX IMVI melanoma, 31.7 µM; in the experiment on SF-295 CNS it was 78.7 µM; with IGROV1 ovarian, 40.4 µM; in the experiment with CCRF-CEM leukemia it was 47.9 µM. For the same compound, the TGI in the experiment with OVCAR-5 ovarian was 43.5 µM; in the experiment with ACHN renal, 59.2 µM; in the experiment on HOP-92 NSCLC it was greater than 100 µM; in the experiment with SK-MEL-2 melanoma, 52.1 µM.
As for `CCCCOC(=O)NC(Nc1cccc(C(F)(F)F)c1)(C(F)(F)F)C(F)(F)F`, the TGI with UACC-257 melanoma, with DU-145 prostate, in the experiment with LOX IMVI melanoma, with SF-295 CNS, with IGROV1 ovarian and in the experiment on CCRF-CEM leukemia was greater than 100 µM each time. Moreover, the TGI in the experiment on OVCAR-5 ovarian is greater than 100 µM; in the experiment on ACHN renal, greater than 100 µM; in the experiment with HOP-92 NSCLC it was 64.7 µM; with SK-MEL-2 melanoma, 99.1 µM.
As for `CCCC(=O)O[C@H]1C=C2C[C@@]34SS[C@]5(CC6=C[C@H](OC(C)=O)[C@@H]7O[C@@H]7[C@H]6N5C3=O)C(=O)N4[C@@H]2[C@H]2O[C@H]21`, the TGI with UACC-257 melanoma turned out to be 0.0746 µM; in the experiment on DU-145 prostate it was 0.362 µM; in the experiment with LOX IMVI melanoma, 0.131 µM; with SF-295 CNS, 1.35 µM; in the experiment on IGROV1 ovarian it was 0.0499 µM; in the experiment with CCRF-CEM leukemia it was 8.41 µM. Moreover, the TGI worked out at 0.251 µM with OVCAR-5 ovarian, 0.0391 µM in the experiment on ACHN renal, 0.0941 µM in the experiment on HOP-92 NSCLC and 0.296 µM in the experiment on SK-MEL-2 melanoma.
In the case of `O=C(Nc1c(C(F)(F)F)cc(-c2ccccc2)[nH]c1=O)N1CCOCC1`, the TGI with UACC-257 melanoma, in the experiment on DU-145 prostate, with LOX IMVI melanoma, in the experiment with SF-295 CNS, in the experiment on IGROV1 ovarian and with CCRF-CEM leukemia was greater than 100 µM each time. The TGI in the experiment with OVCAR-5 ovarian, with ACHN renal, in the experiment on HOP-92 NSCLC and with SK-MEL-2 melanoma was greater than 100 µM in each case.
For `COc1cc(C(=O)O[C@@H]2[C@@H](OC(=O)c3cc(OC)c(OC)c(OC)c3)[C@@H](OC)O[C@@H]3CO[C@@H](c4ccccc4)O[C@@H]23)cc(OC)c1OC`, the TGI in the experiment with UACC-257 melanoma, in the experiment with DU-145 prostate, in the experiment with LOX IMVI melanoma, in the experiment on SF-295 CNS, in the experiment on IGROV1 ovarian and with CCRF-CEM leukemia was greater than 100 µM in each case. In addition, the TGI in the experiment with OVCAR-5 ovarian, with ACHN renal, in the experiment with HOP-92 NSCLC and with SK-MEL-2 melanoma was greater than 100 µM in each case.
Regarding `Nc1ncc(Cl)c(NCC2(CO)CC(CCc3ccccc3)C2)n1` (stereo not given), the TGI in the experiment on UACC-257 melanoma, with DU-145 prostate, in the experiment with LOX IMVI melanoma, in the experiment on SF-295 CNS, in the experiment with IGROV1 ovarian and in the experiment with CCRF-CEM leukemia was greater than 100 µM each time. In addition, the TGI with OVCAR-5 ovarian, with ACHN renal, in the experiment on HOP-92 NSCLC and in the experiment on SK-MEL-2 melanoma was greater than 100 µM throughout.
Turning to `CC(C)(C)OC(=O)N(O)CCCn1cnc2c(N)ncnc21`, the TGI with UACC-257 melanoma, in the experiment on DU-145 prostate, with LOX IMVI melanoma, in the experiment with SF-295 CNS, in the experiment with IGROV1 ovarian and in the experiment with CCRF-CEM leukemia was greater than 100 µM throughout. Moreover, the TGI in the experiment with OVCAR-5 ovarian, in the experiment with ACHN renal, in the experiment with HOP-92 NSCLC and with SK-MEL-2 melanoma was greater than 100 µM each time.
As to `CC=CCOc1cc(NC(=S)OC(C)C)ccc1Cl` (mixture of isomers), the TGI in the experiment with UACC-257 melanoma was 46.5 µM; in the experiment on DU-145 prostate, 76.9 µM; in the experiment with LOX IMVI melanoma, 35.8 µM; with SF-295 CNS, 35.5 µM; in the experiment on IGROV1 ovarian, 43.2 µM; with CCRF-CEM leukemia, 64.3 µM. The TGI in the experiment with OVCAR-5 ovarian came out at 44.5 µM; in the experiment on ACHN renal, 31.6 µM; in the experiment with HOP-92 NSCLC, 24.9 µM; with SK-MEL-2 melanoma it was 28.6 µM.
